Laboratory results reported in a melting point compilation (Tetko et al.).

Which melting point does the source give for `Cc1cc(NC(=O)Nc2cc(C)nn2C(C)(C)C)n(C(C)(C)C)n1` here?
The melting point was 235 to 237 °C.

Which melting point does the source give for `CC1CC(C(=O)O)CC(C)(C)C1` (stereo not given) here?
Its melting point is 39 to 41 °C.

Which melting point does the source give for `CC(=O)c1ccc(N2CCCC2=O)cc1` here?
The melting point was 127 to 131 °C.

For `NC(=O)C1NCCc2ccccc21` (stereo not given), which melting point is on record?
Its melting point is 180 to 182 °C.

For `CCn1cc(C(=O)O)c(C(C)C)n1`, which melting point is on record?
The melting point was 122 to 124 °C.

For `O=C1CCCc2cc(C(=O)O)ccc2N1`, which melting point is on record?
The melting point was 267 to 269 °C.

Which melting point does the source give for `CC(=O)Nc1ccc(N=C=S)cc1` here?
The melting point was 199 to 201 °C.

Which melting point does the source give for `CCOC(=O)C(=O)CC(=O)c1ccccc1OCC` here?
Its melting point is 91 to 93 °C.

With `CS(=O)(=O)N1CCN(CCN)CC1` as the compound, how does the melting point read?
The melting point was 10 to 12 °C.

For `COC(=O)Cc1c(C)n[nH]c1C`, which melting point is on record?
Its melting point is 51 to 55 °C.

For `O=S1(=O)CCC(Cc2nc3ccccc3[nH]2)C1` (stereo not given), which melting point is on record?
The melting point was 156 to 158 °C.

Which melting point does the source give for `Cc1nc(-c2ccc(N)cc2)co1` here?
The melting point was 112 to 114 °C.

Which melting point does the source give for `COc1ccccc1-c1nnc(S)o1` here?
Its melting point is 243 to 245 °C.

For `CC(=O)c1cc2ccccc2[nH]1`, which melting point is on record?
The melting point was 149 to 151 °C.

For `NNc1nccc2sccc12`, which melting point is on record?
Its melting point is 191 to 193 °C.

Which melting point does the source give for `OCc1cnc(-c2ccco2)o1` here?
Its melting point is 99 to 101 °C.

With `Cc1nc2cc(Cl)ccc2c(=O)n1N` as the compound, how does the melting point read?
Its melting point is 202 to 204 °C.

With `O=C(O)c1cc2c(OC(F)(F)F)cccc2[nH]1` as the compound, how does the melting point read?
Its melting point is 189 to 191 °C.

With `O=C(c1c[nH]c(=O)[nH]1)N1CCNCC1` as the compound, how does the melting point read?
Its melting point is 269 to 271 °C.

For `COC(=O)c1ccc2c(=O)[nH]c(CCl)nc2c1`, which melting point is on record?
The melting point was 210 to 212 °C.

With `CCc1noc(CC)c1CC(=O)O` as the compound, how does the melting point read?
Its melting point is 73 to 75 °C.

For `CC1CN(c2ccc(C(=O)O)cn2)CC(C)O1` (stereo not given), which melting point is on record?
Its melting point is 219 to 221 °C.

Which melting point does the source give for `N#Cc1ccc(NC(=O)CCCl)cc1Cl` here?
Its melting point is 156 to 158 °C.

For `O=C(O)CCc1nc2cc(Br)ccc2s1`, which melting point is on record?
Its melting point is 154 to 156 °C.

For `CS(=O)(=O)Cc1ccc(C(=O)O)o1`, which melting point is on record?
The melting point was 186 to 188 °C.

With `O=c1[nH]c(CCl)nc2c1cnn2-c1ccccc1` as the compound, how does the melting point read?
The melting point was 259 to 261 °C.

With `CCCc1cc(N)on1` as the compound, how does the melting point read?
Its melting point is 54 to 58 °C.

For `CC1CCCCC1(NC(=O)OC(C)(C)C)C(=O)O` (stereo not given), which melting point is on record?
The melting point was 174 to 176 °C.

Which melting point does the source give for `Cc1nc(-c2ccccc2)c(N)n1C` here?
The melting point was 145 to 147 °C.

For `COC(=O)c1ccc(C(=O)OC)c(S(=O)(=O)Cl)c1`, which melting point is on record?
Its melting point is 63 to 67 °C.

With `COC(=O)COc1ccc2cc(Br)ccc2c1` as the compound, how does the melting point read?
The melting point was 109 to 111 °C.

With `CNc1ccc(Br)nc1` as the compound, how does the melting point read?
The melting point was 57 to 59 °C.

Which melting point does the source give for `Cc1cc(C)c2c(n1)NCC(=O)N2` here?
Its melting point is 209 to 211 °C.

With `COCc1cc(Cl)n2ncnc2n1` as the compound, how does the melting point read?
The melting point was 104 to 106 °C.

For `Cc1n[nH]c2cc(N)ccc12`, which melting point is on record?
Its melting point is 189 to 191 °C.

With `O=C(O)CCNc1ccccc1[N+](=O)[O-]` as the compound, how does the melting point read?
Its melting point is 144 to 146 °C.

Which melting point does the source give for `O=C(NCc1nnc2n1CCC2)OCC(F)(F)F` here?
The melting point was 131 to 133 °C.

With `CCOc1ccc(C(C)=O)cc1[N+](=O)[O-]` as the compound, how does the melting point read?
The melting point was 54 to 56 °C.

With `CC(=O)c1cccc(OCCCC(=O)O)c1` as the compound, how does the melting point read?
The melting point was 90 to 92 °C.

Which melting point does the source give for `O=C(O)c1cnc2n1CCCC2` here?
Its melting point is 219 to 221 °C.

With `COC(=O)Cn1ccc(N)n1` as the compound, how does the melting point read?
The melting point was 74 to 76 °C.

For `O=C(O)/C=C/c1ccccn1`, which melting point is on record?
Its melting point is 201 to 203 °C.

With `OC1CC(c2ccc(Br)cc2)C1` (stereo not given) as the compound, how does the melting point read?
The melting point was 59 to 61 °C.

Which melting point does the source give for `CCOC(=O)C1CCCN1S(N)(=O)=O` (stereo not given) here?
Its melting point is 123 to 125 °C.

With `O=C(O)c1ccc(-n2ccnn2)cc1` as the compound, how does the melting point read?
Its melting point is 279 to 281 °C.

With `Nc1ccc(Cl)cc1-n1cccc1` as the compound, how does the melting point read?
The melting point was 92 to 94 °C.

Which melting point does the source give for `CCOC(=O)C(C#N)C1C(=O)N(C)c2ccccc21` (stereo not given) here?
The melting point was 119 to 121 °C.

With `COc1ccc(C(=O)C(C)Br)cc1` (stereo not given) as the compound, how does the melting point read?
The melting point was 66 to 68 °C.

For `CC1C=CC(C(=O)O)C2C(=O)N(c3ccccc3)C(=O)C12` (stereo not given), which melting point is on record?
The melting point was 219 to 221 °C.

For `Cc1cc(CO)ncn1`, which melting point is on record?
Its melting point is 74 to 76 °C.

For `Cc1onc(CC(=O)O)c1C#N`, which melting point is on record?
Its melting point is 59 to 61 °C.

Which melting point does the source give for `Cc1c[nH]c(=O)n1-c1ccccc1N` here?
The melting point was 194 to 196 °C.

Which melting point does the source give for `NC(=O)C1=CCCC1` here?
Its melting point is 166 to 168 °C.

For `O=C(O)c1cscn1`, which melting point is on record?
The melting point was 195 to 197 °C.

Which melting point does the source give for `CN(C)S(=O)(=O)c1ccccc1C#N` here?
Its melting point is 57 to 59 °C.

Which melting point does the source give for `COC(=O)c1n[nH]c(N)n1` here?
The melting point was 218 to 222 °C.

With `O=S1(=O)CCCN1c1ccc(Br)cc1F` as the compound, how does the melting point read?
Its melting point is 89 to 91 °C.

For `COc1ccc(Cc2nnc(S)o2)cc1OC`, which melting point is on record?
Its melting point is 202 to 204 °C.

Which melting point does the source give for `CC(C)(C)OC(=O)NCC1CCCC1N` (stereo not given) here?
The melting point was 43 to 45 °C.

Which melting point does the source give for `O=C(O)C1(c2ccccc2)CCC1` here?
The melting point was 105 to 107 °C.
